Source: patent US20160083400A1, “TRICYCLIC GUANIDINE DERIVATIVE” (Sunovion Pharmaceuticals Inc., priority 2014, published 2016)

Molecular target: PDE1B (Homo sapiens, UniProt Q01064)
Test: In vitro HTRF PDE1 inhibition assay (PDE1B)
Assay type: biochemical
Conditions: 100 nM cyclic GMP, calmodulin, 45 minutes at 37° C.

Sequence of PDE1B (Q01064 whole entry): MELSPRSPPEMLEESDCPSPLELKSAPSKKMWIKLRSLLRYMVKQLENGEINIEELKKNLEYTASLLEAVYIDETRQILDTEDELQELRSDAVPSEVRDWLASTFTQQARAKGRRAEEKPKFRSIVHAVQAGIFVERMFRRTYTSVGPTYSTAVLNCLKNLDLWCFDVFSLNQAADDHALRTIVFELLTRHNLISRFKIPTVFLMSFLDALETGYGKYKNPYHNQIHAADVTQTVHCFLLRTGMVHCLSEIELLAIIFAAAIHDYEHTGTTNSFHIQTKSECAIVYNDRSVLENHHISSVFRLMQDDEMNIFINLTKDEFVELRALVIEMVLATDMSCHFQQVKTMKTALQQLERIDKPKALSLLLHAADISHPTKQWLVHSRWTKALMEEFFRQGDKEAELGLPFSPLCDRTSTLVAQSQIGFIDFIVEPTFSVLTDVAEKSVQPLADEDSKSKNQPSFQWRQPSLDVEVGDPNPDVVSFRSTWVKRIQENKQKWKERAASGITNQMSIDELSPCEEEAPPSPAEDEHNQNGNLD

IC50 [µM] | Compound
< 1 | CC(C)c1nccc2c(=O)n3c(nc12)NC(c1ccc(Cl)cc1)CC3 (stereo not shown) [Example 173]
< 1 | COc1cncc([C@H]2CCn3c(nn4c(C5CCCC5)ncc4c3=O)N2)c1 [Example 130]
< 1 | COc1ccc(CC2CCn3c(nc4c(cnn4C4CCOCC4)c3=O)N2)cc1 (stereo not shown) [Example 16]
< 1 | O=C1c2cnc([C@@H]3CCOC3)n2NC2=N[C@@H](c3ccc(Cl)cc3)CN12 [Example 185, (2S)-2-(4-Chlorophenyl)-8-[(3S)-tetrahydro-3-furanyl]-2,10-dihydro-3H,5H-diimidazo[2,1-c:5′,1′-f][1,2,4]triazin-5-one]
< 1 | CC(C)n1ncc2c(=O)n3c(nc21)N[C@H](c1ccc(Cl)cc1)C3 [Example 143]
1 to 10 | Cc1cc(C2CCn3c(nc4c(cnn4C(C)C)c3=O)N2)ccn1 (stereo not shown) [Example 26]
< 1 | O=c1c2cnc(C3CCC3)n2nc2n1CCC(c1ccc(C(F)(F)F)cc1)N2 (stereo not shown) [Example 64]
10 to 100 | CC(C)(C)n1ncc2c(=O)n3c(nc21)NC(c1ccc(Cl)cc1)CC3 (stereo not shown) [Example 45]
1 to 10 | O=c1c2cnc(C3CCOCC3)n2nc2n1CC[C@@H](c1ccc(Cl)cc1F)N2 [Example 124]
1 to 10 | CC(C)c1onc2c(=O)n3c(nc12)N[C@@H](c1ccc(Cl)cc1)CC3 [Example 152, (6R)-6-(4-Chlorophenyl)-3-isopropyl-4,6,7,8-tetrahydro-10H-[1,2]oxazolo[4,3-d]pyrimido[1,2-a]pyrimidin-10-one]
< 1 | O=c1c2cnc(C3CCOCC3)n2nc2n1CC[C@H](c1ccc(Cl)cc1F)N2 [Example 125]
< 1 | CCC(CC)n1ncc2c(=O)n3c(nc21)NC(c1ccc(Cl)cc1)CC3 (stereo not shown) [Example 36]
< 1 | CC(C)c1ncc2c(=O)n3c(nn12)NC(c1ccc(OCF)cc1)C3 (stereo not shown) [Example 262, 2-[4-(Fluoromethoxy)phenyl]-8-isopropyl-2,10-dihydro-3H,5H-diimidazo[2,1-c:5′,1′-f][1,2,4]triazin-5-one]
1 to 10 | O=c1c2cnc(C3CCOCC3)n2nc2n1CCC1(CCCc3ccccc31)N2 (stereo not shown) [Example 180]
< 1 | CC(C)(C)c1ncc2c(=O)n3c(nn12)NC(c1ccc(Cl)cc1)CC3 (stereo not shown) [Example 68]
< 1 | O=c1c2cnc(C3CCCC3)n2nc2n1CC[C@@H](c1ccc(Cl)cc1)N2 [Example 62]
< 1 | Cc1cncc([C@H]2CCn3c(nn4c(C5CCCC5)ncc4c3=O)N2)c1 [Example 132]
1 to 10 | O=c1c2cnc(C(F)(F)F)n2nc2n1C[C@H](c1ccc(Cl)cc1)N2 [Example 251, (2S)-2-(4-Chlorophenyl)-8-(trifluoromethyl)-2,10-dihydro-3H,5H-diimidazo[2,1-c:5′,1′-f][1,2,4]triazin-5-one]
< 1 | O=c1c2cnn(C3CCOCC3)c2nc2n1CCC(Cc1ccc(Cl)cc1)N2 (stereo not shown) [Example 17]
< 1 | CC(C)c1ncc2c(=O)n3c(nn12)NC(c1ccc(Cl)nc1)C3 (stereo not shown) [Example 181, 2-(6-Chloro-3-pyridinyl)-8-isopropyl-2,10-dihydro-3H,5H-diimidazo[2,1-c:5′,1′-f][1,2,4]triazin-5-one]
1 to 10 | O=c1c2ccnc(C3CCOCC3)c2nc2n1CCC(c1ccc(Cl)cc1)N2 (stereo not shown) [Example 172]
< 1 | COc1ccc(C2CCn3c(nn4c(C(C)C)ncc4c3=O)N2)cc1 (stereo not shown) [Example 54]
< 1 | O=c1c2cnn(C3CC3)c2nc2n1CCC(c1ccc(Cl)cc1)N2 (stereo not shown) [Example 15]
< 1 | COc1cc(C2CCn3c(nn4c(C(C)C)ncc4c3=O)N2)ccc1F (stereo not shown) [Example 48]

IC50 [µM] | Compound
< 1 | C=C(C)c1ncc2c(=O)n3c(nn12)N[C@@H](c1ccc(Cl)cc1)CC3 [Example 241]
< 1 | CC(C)c1ncc2c(=O)n3c(nn12)NC(c1ccc(C(F)(F)F)cc1)CC3 (stereo not shown) [Example 50]
< 1 | O=c1c2cnc(C3CCOCC3)n2nc2n1C[C@@H](c1ccc(Cl)cc1)N2 [Example 138]
< 1 | COc1cc(C2CCn3c(nc4c(cnn4C(C)C)c3=O)N2)ccc1F (stereo not shown) [Example 11]
< 1 | COc1ccc([C@H]2Cn3c(nc4c(cnn4C(C)C)c3=O)N2)cc1 [Example 146]
1 to 10 | O=c1c2cnc(C3CCNCC3)n2nc2n1CCC(c1ccc(Cl)cc1)N2 (stereo not shown) [Example 253, 2-(4-Chlorophenyl)-9-(4-piperidinyl)-1,2,3,4-tetrahydro-6H-imidazo[5,1-f]pyrimido[2,1-c][1,2,4]triazin-6-one]
10 to 100 | COc1cccc(C2CCn3c(nc4c(cnn4C4CCCC4)c3=O)N2)c1 (stereo not shown) [Example 5]
< 1 | COc1ccc(CC2CCn3c(nn4c(C5CCOCC5)ncc4c3=O)N2)cc1 (stereo not shown) [Example 58]
< 1 | CC(C)c1ncc2c(=O)n3c(nn12)NC(c1ccc(C#N)cn1)CC3 (stereo not shown) [Example 92]
1 to 10 | O=c1c2cnn(C3CCCC3)c2nc2n1CCC(c1ccncc1)N2 (stereo not shown) [Example 3]
< 1 | CC(C)n1ncc2c(=O)n3c(nc21)NC(c1ccccc1Cl)CC3 (stereo not shown) [Example 31]
1 to 10 | Cc1cnc(CC2CCn3c(nc4c(cnn4C4CCCC4)c3=O)N2)nc1 (stereo not shown) [Example 70, 1-Cyclopentyl-8-[(5-methyl-2-pyrimidinyl)methyl]-6,7,8,10-tetrahydropyrazolo[3,4-d]pyrimido[1,2-a]pyrimidin-4(1H)-one]
1 to 10 | Cc1ncc(CC2CCn3c(nc4c(cnn4C(C)C)c3=O)N2)cn1 (stereo not shown) [Example 72]
< 1 | COc1ccc([C@H]2CCn3c(nn4c(C(C)C)ncc4c3=O)N2)cc1 [Example 85]
1 to 10 | Cc1ncc(CC2CCn3c(nc4c(cnn4C4CCCC4)c3=O)N2)cn1 (stereo not shown) [Example 71]
< 1 | Cc1cccc([C@@H]2CCn3c(nn4c(C5CCOCC5)ncc4c3=O)N2)c1 [Example 263, (2S)-2-(3-Methylphenyl)-9-(tetrahydro-2H-pyran-4-yl)-1,2,3,4-tetrahydro-6H-imidazo[5,1-f]pyrimido[2,1-c][1,2,4]triazin-6-one]
< 1 | CCCn1ncc2c(=O)n3c(nc21)NC(c1ccc(Cl)cc1)CC3 (stereo not shown) [Example 35]
1 to 10 | O=c1c2cnc(C(F)(F)F)n2nc2n1CC[C@H](c1ccc(Cl)cc1)N2 [Example 246]
< 1 | CC(C)c1ncc2n1NC1=N[C@H](c3ccc(Cl)cc3)CN1C2=O [Example 136, (2R)-2-(4-Chlorophenyl)-8-isopropyl-2,10-dihydro-3H,5H-diimidazo[2,1-c:5′,1′-f][1,2,4]triazin-5-one]
< 1 | COc1cncc([C@@H]2CCn3c(nn4c(C5CCCC5)ncc4c3=O)N2)c1 [Example 131]
1 to 10 | C=Cc1ncc2c(=O)n3c(nn12)N[C@@H](c1ccc(Cl)cc1)CC3 [Example 248]
< 1 | CC(C)c1ncc2c(=O)n3c(nn12)N[C@@H](c1ccc(O)cc1)C3 [Example 261, (2S)-2-(4-Hydroxyphenyl)-8-isopropyl-2,10-dihydro-3H,5H-diimidazo[2,1-c:5′,1′-f][1,2,4]triazin-5-one]
< 1 | CC(C)c1ncc2c(=O)n3c(nn12)NC(c1ccc(C#N)cc1)CC3 (stereo not shown) [Example 91]
< 1 | COc1cccc([C@@H]2CCn3c(nn4c(C5CCOCC5)ncc4c3=O)N2)c1 [Example 129]

Compound | IC50 [µM]
O=c1c2cnc(C3CCOCC3)n2nc2n1CC(c1ccc(F)nc1)N2 (stereo not shown) [Example 184] | 1 to 10
